Assay results reported in patent US9927440B2, “Protein engineering” (priority 2009, dated 2018).

Assays:
[1] = molecular target: T1, Staphylococcal nuclease (SN) (Staphylococcus aureus, UniProt P00644, L118C/Q162N); assay type: binding; conditions: 50 μM pdTp; 35.3 °C
T1 construct: made in house; host or cells: cell-free TnT, E. coli BL21 Star (DE3) extract
Description: (§1) The rate of labeling of internal cysteine residues was measured by reacting 30-50 μL of ˜0.1 μM protein sample (i.e., ˜3-5 picomoles of protein) with excess IAM-biotin (1 mM unless otherwise stated) at constant temperature (25 mM MOPS, 100 mM KCl and pH 7.6). 5 μL aliquots were removed at fixed time intervals and quenched by addition of 2 μL 2M β-mercaptoethanol (Sigma; M6250). Following addition of 5 μL LDS-buffer (Invitrogen; NP0007) and heating for 2 min at 85° C., (un)labeled protein species were resolved by SDS-PAGE (Novex 4-12% Bis-Tris Gels; Invitrogen; NP0321). […] For the experiment shown in FIG. 8A, ecRBP variant L62C was modified with 1 mM IAM-biotin at 47.1° C., pH 7.6. […] Streptavidin was used to alter the electrophoretic mobility of the labeled protein (Streptavidin bands indicated by a, b, and c). […] Error bars represent the estimated uncertainty of the integrated band intensities (˜2%). For the experiment shown in FIG. 8B, SN variant L36C was labeled with IAM-biotin at 35.3° C., pH 7.6. […] At 29.3° C., 26.3° C. and 23.3° C., kint and klabel were manipulated by increasing the concentration of IAM-biotin from 1 mM to 3.16 mM.
(§2) The modulation of protein stability by binding of metals, ligands, activators, inhibitors, substrates, nucleic acid or other proteins can be used to measure binding affinities within a GUWO. For a protein with a single binding site, the free energy of ligand binding was described by
(§3) [formula] where P was the binding polynomial, [L] the total ligand concentration, and KD the apparent dissociation constant of the ligand. For proteins with multiple ligand-binding sites, P was expanded as described in Equations 21-36 below.
(§4) By thermodynamic linkage, any change in ΔGU caused predominantly by ligand binding (Scheme 1) is ΔGbind=ΔΔ^LGU=Δ^LGU−Δ^apoGU [20] where Δ^LGU and Δ^apoGU were the stability of the protein in the presence of absence of ligand respectively. Equation 20 was used to obtain apparent KD values from either the ligand dependence of ΔΔGU (by curve fitting), or from a single measurement of ΔΔGU.

[2] = molecular target: T2, Staphylococcal nuclease (SN) (Staphylococcus aureus, UniProt P00644); assay type: binding; conditions: SN/L36C; 35.3 °C; from single ΔΔGU measurement; read-out: apparent KD (binary complex)
T2 construct: made in house; host or cells: cell-free TnT, E. coli BL21 Star (DE3) extract
Description: as §1, §2, §3, §4

SN = SN (Staphylococcus aureus, UniProt P00644); conditions: Ca2+ and pdTp synergistic; read-out: affinity for SN in the presence of the other ligand; cited from earlier work
[3] = literature; cited from earlier work

| Molecule | increase in stability (ΔΔGU) of SN/L36C [1] [kJ/mol] | Kd [2] [µM] | Kd (SN) [µM] | Tm of wild-type [3] [°C] |
| --- | --- | --- | --- | --- |
| Cc1cn([C@H]2C[C@H](OP(=O)(O)O)[C@@H](COP(=O)(O)O)O2)c(=O)[nH]c1=O [pdTp] | 2.9 ± 0.84 | 23 ± 4 | ~2 |  |
| wild-type ecRBP: wild-type E. coli ribose-binding protein (protein, listed as Escherichia coli) MKDTIALVVSTLNNPFFVSLKDGAQKEADKLGYNLVVLDSQNNPAKELANVQDLTVRGTKILLINPTDSDAVGNAVKMANQANIPVITLDRQATKGEVVSHIASDNVLGGKIAGDYIAKKAGEGAKVIELQGIAGTSAARERGEGFQQAVAAHKFNVLASQPADFDRIKGLNVMQNLLTAHPDVQAVFAQNDEMALGALRALQTAGKSDVMVVGFDGTPDGEKAVNDGKLAATIAQLPDQIGAKGVETADKVLKGEKVQAKYPVDLKLVVKQNGGSHHHHHH |  |  |  | 62.6 |
